Data set [1] concerns PTEN. Nature of the data set: PTEN ubiquitination (PTEN immunoprecipitation, ubiquitin Western blotting) in MDA-MB-231. The settings on record: 1 μM, 24 hours. The data set is classed as cell-based, human. As to the method: (§1) The p34 activity inhibitor, Compound 27, in a concentration of 1 μM was treated with human breast cancer cell lines MDA-MB-231 and colorectal cancer cell lines LS1034 for 24 hours, and immunoprecipitation was performed using a PTEN antibody. Thereafter, Western blotting was performed using an ubiquitin antibody. The result is illustrated in FIG. 62.
A general note: A western blot detects proteins with antibodies after separation by electrophoresis.

Data set [2] concerns PTEN. Nature of the data set: PTEN ubiquitination (PTEN immunoprecipitation, ubiquitin Western blotting) in LS1034. In kind it is cell-based, human. The settings on record: 1 μM, 24 hours. As to the method: as §1
Data set [3] addresses T1, p34 protein and NEDD4-1 protein (Homo sapiens, UniProt Q9UHV2).
T1 construct: made in house; host or cells: E. coli BL-21 (DE3) (printed for GST-p34 in the earlier pull-down)
T1 sequence (Q9UHV2 1-236): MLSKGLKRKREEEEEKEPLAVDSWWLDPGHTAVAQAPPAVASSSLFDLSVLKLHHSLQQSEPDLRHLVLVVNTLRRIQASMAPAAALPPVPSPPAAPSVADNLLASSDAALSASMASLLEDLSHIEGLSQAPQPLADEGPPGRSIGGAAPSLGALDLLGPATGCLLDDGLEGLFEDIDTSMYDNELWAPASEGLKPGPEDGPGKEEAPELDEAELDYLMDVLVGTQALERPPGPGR
Nature of the data set: GST-pull down of p34 and NEDD4-1 proteins binding. Particulars: 1 mM or 3 mM, 30° C., 1 hour, purified proteins. How it is done: Purified NEDD4-1 protein and p34 protein were treated with a reaction buffer (20 mM Tris-HCl pH7.5, 120 mM NaCl) and the p34 activity inhibitor Compound 27 in a concentration of 1 mM or 3 mM, and reacted at 30° C. for 1 hour. Thereafter, the reaction was stopped using GST-pull down buffer (20 mM Tris-HCl pH8.0, 500 mM NaCl, 1% Triton X-100, 0.02% BSA, 5 mM mercaptoethanol), and then pulled down with glutathione-sepharose beads at 4° C. Western blotting was performed using anti-His and anti-GST antibodies. The result is illustrated in FIG. 63.

The next data set deals with MDA-MB-231. The experiment in a line: Trypan blue dye cell death, MDA-MB-231. The settings on record: MDA-MB-231, per each concentration, 48 hours. In kind it is cell-based, human. How it is done: (§2) Human breast cancer cell lines MDA-MB-231 were treated with the p34 activity inhibitor Compound 27 per each concentration for 48 hours, and then trypan blue dye and Western blotting were performed. The result is illustrated in FIG. 64.

Data set [4] relates to PTEN protein, Akt, caspase3. Nature of the data set: Western blotting after p34 activity inhibitor, MDA-MB-231. The data set is classed as cell-based, human. Particulars: MDA-MB-231, 48 hours. How it is done:
as §2

In data set [5] the test system is PTEN. The experiment in a line: PTEN lipid phosphatase activity, MDA-MB-231. Particulars: MDA-MB-231, 48 hours, OD 650 nm. The data set is classed as cell-based, human. How it is done:
(§3) Also, human breast cancer cell lines MDA-MB-231 were treated with p34 activity inhibitor Compound 27 per each concentration for 48 hours, and cell sap was collected and immunoprecipitation was performed using a PTEN antibody. Thereafter, it was reacted with a reaction buffer solution (100 mM Tris-HCl pH8.0, 10 mM DTT) containing water-soluble diC8-phosphatidylinositol 3,4,5 tri-phosphate at 37° C. for 40 minutes, and only the supernatant was collected to be reacted with Biomol Green solution at room temperature for 30 minutes. Then, PTEN lipid phosphatase activity was measured at OD 650 nm. The result is illustrated in FIG. 65.

Another data set has as its system LS1034. Nature of the data set: Trypan blue dye cell death, LS1034. In kind it is cell-based, human. Particulars: LS1034, per each concentration, 48 hours. How it is done:
as §2
(§4) The same experiments were performed using human colorectal cancer cell lines LS1034. The results are illustrated in FIGS. 66 and 67.

Data set [6] deals with PTEN protein, Akt, caspase3. The experiment in a line: Western blotting after p34 activity inhibitor, LS1034. In kind it is cell-based, human. Particulars: LS1034, 48 hours. As to the method: as §2, §4
Data set [7] deals with PTEN. Nature of the data set: PTEN lipid phosphatase activity, LS1034. The settings on record: LS1034, 48 hours, OD 650 nm. In kind it is cell-based, human. How it is done: as §3, §4
The test system of data set [8] is PTEN protein. Nature of the data set: Western blotting after co-transfection of GFP-tagged p34 and NEDD4-1-siRNA/shRNA, 293 cells. In kind it is cell-based. Particulars: 293 cells co-transfected with GFP-tagged p34; decreased with GFP-tagged p34 alone. How it is done: (§5) The expression levels of each protein were analyzed using Western blotting. The result is illustrated in FIG. 23.

Data set [9] deals with PTEN protein. Nature of the data set: Western blotting after co-transfection of GFP-tagged p34 and NEDD4-1-siRNA/shRNA, MEF cells. Particulars: MEF cells co-transfected with GFP-tagged p34; decreased with GFP-tagged p34 alone. In kind it is cell-based, mouse. As to the method: as §5
Data set [10] has as its target T2, GST-PTEN fusion protein (UniProt P60484 1-403).
T2 construct: Purified recombinant protein; also called purified recombinant GST-PTEN; not shown: GST tag
The experiment in a line: GST pull-down with purified recombinant GST-PTEN, Western blotting (FIG. 8).

For data set [11], the target named is T3, GST-tagged NEDD4-1 mutant lacking WW1 domain (GST-delWW1) (UniProt P46934-4 1-900, limits assumed).
T3 construct: also called NEDD4-1 protein lacking the WW1 domain; not shown: GST tag
T3 sequence (looked up): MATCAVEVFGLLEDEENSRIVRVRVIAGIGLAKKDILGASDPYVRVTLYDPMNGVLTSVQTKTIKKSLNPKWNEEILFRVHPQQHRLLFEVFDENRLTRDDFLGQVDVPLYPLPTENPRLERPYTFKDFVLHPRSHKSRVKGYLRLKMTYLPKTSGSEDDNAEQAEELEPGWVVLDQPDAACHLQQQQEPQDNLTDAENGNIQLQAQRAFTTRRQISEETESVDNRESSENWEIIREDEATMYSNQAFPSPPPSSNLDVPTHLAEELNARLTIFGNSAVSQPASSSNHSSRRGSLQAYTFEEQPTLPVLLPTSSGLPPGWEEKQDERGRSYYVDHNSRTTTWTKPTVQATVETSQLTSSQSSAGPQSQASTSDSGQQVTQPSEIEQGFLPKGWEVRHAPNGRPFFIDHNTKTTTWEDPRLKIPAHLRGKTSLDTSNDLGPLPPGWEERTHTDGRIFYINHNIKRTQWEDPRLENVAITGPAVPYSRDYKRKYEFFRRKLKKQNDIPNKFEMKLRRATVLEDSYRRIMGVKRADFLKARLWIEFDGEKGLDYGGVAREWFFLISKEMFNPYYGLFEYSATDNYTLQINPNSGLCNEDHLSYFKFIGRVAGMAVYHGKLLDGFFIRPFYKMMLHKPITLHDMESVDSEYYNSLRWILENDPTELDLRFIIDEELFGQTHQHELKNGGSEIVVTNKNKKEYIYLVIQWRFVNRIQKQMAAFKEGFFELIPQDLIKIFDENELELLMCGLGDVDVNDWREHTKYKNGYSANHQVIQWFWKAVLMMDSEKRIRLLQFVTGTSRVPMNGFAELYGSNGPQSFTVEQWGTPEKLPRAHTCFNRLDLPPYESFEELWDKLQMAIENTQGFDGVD
The experiment in a line: GST pull-down of GST-delWW1 with lysate of cells expressing His-p34 (FIG. 10). How it is done: (2) In order to verify the above result, plasmids containing GST-tagged wild-type NEDD4-1 mutants lacking WW1 domain (GST-delWW1) were prepared. The mutant proteins of NEDD4-1 were incubated with a lysing solution isolated from cells expressing His-p34, and then GST-pull down assay was performed. The result is illustrated in FIG. 10.

Data set [12] addresses T2, GST-PTEN fusion protein. Nature of the data set: GST pull-down of GST-PTEN with lysate of cells expressing Myc-NEDD4-1 and His-p34 (FIG. 11). How it is done: In order to investigate whether p34 affects PTEN and NEDD4-1 binding, GST-PTEN fusion proteins were incubated with the lysing solution of cells expressing Myc-NEDD4-1 and His-p34, and then GST-pull down assay was performed. As a control group, GST proteins were used. The result is illustrated in FIG. 11.

Consider four molecules from patent publication US9752151B2, “Composition for treatment or metastasis suppression of cancers which includes p34 expression inhibitor or activity inhibitor as active ingredient” (THE ASAN FOUNDATION, priority 2013, dated 2017).

T2 sequence (P60484 whole entry, the tested form may be a part): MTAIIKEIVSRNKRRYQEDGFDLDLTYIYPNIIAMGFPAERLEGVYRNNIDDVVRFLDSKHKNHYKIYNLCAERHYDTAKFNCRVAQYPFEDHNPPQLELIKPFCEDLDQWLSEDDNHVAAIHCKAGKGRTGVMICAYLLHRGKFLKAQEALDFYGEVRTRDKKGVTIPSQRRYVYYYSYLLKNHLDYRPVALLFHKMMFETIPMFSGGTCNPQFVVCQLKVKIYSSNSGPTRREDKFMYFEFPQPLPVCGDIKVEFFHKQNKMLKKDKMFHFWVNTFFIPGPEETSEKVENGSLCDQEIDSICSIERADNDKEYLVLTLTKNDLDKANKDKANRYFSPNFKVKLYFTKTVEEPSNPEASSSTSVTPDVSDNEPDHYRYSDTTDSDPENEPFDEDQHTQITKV

Turning to `Cc1[nH]c2ccc(-c3nnc(OCC(=O)NC(C)c4nc5ccccc5[nH]4)o3)cc2c1C` (stereo not drawn) [Compound 27], the PTEN ubiquitination result in the data set with PTEN [1] and in the data set with PTEN [2] was “inhibiting PTEN ubiquitination” in each case. In addition, in data set [3], the “p34 protein and NEDD4-1 protein binding” value was “inhibited the p34 protein and the NEDD4-1 protein binding in a dose dependent manner”. The cell death entry in the data set on MDA-MB-231 and in the data set with LS1034 was “cell death was induced” throughout. Besides, the Akt dephosphorylation result in data set [4] and in data set [6] was “Akt dephosphorylation occurred” throughout. Also, the PTEN protein entry in [4] and in [6] was “reactivated” throughout. The caspase3 activation result in data set [4] and in data set [6] was “caspase3 was activated” throughout. In addition, the “PTEN lipid phosphatase activity” value in the data set with PTEN [5] and in the data set on PTEN [7] was “increased PTEN lipid phosphatase activity” each time.
With “NEDD4-1-siRNA/shRNA: NEDD4-1-siRNA: 5′-TGGCGATTTGTAAACCGAA-3′ (SEQ ID NO 4) (listed as DNA, chemistry not given here)”, the “levels of PTEN protein” value with PTEN protein [8] and in the data set with PTEN protein [9] was “remained substantially unchanged” in each case.

B1: p34 protein (construct not stated) (other, UniProt Q9UHV2 1-236, looked up)
chain: MLSKGLKRKREEEEEKEPLAVDSWWLDPGHTAVAQAPPAVASSSLFDLSVLKLHHSLQQSEPDLRHLVLVVNTLRRIQASMAPAAALPPVPSPPAAPSVADNLLASSDAALSASMASLLEDLSHIEGLSQAPQPLADEGPPGRSIGGAAPSLGALDLLGPATGCLLDDGLEGLFEDIDTSMYDNELWAPASEGLKPGPEDGPGKEEAPELDEAELDYLMDVLVGTQALERPPGPGR
notes: also called purified p34 protein
B1: the binding result with GST-PTEN fusion protein [10] is on record as “no binding”.

B2: His-tagged p34 (other, UniProt Q9UHV2 1-236, looked up)
chain: MLSKGLKRKREEEEEKEPLAVDSWWLDPGHTAVAQAPPAVASSSLFDLSVLKLHHSLQQSEPDLRHLVLVVNTLRRIQASMAPAAALPPVPSPPAAPSVADNLLASSDAALSASMASLLEDLSHIEGLSQAPQPLADEGPPGRSIGGAAPSLGALDLLGPATGCLLDDGLEGLFEDIDTSMYDNELWAPASEGLKPGPEDGPGKEEAPELDEAELDYLMDVLVGTQALERPPGPGR
notes: Expressed in cells and used as lysate; also called His-p34; not shown: His tag
As to B2, the binding result (in data set [11]; with GST-PTEN fusion protein [12]) was “no binding” each time.
